Measurements reported in patent publication US20030153551A1, “Method for treating ocular neovascular diseases” (priority 2002, published 2003).

Tests used:
[1] = system: choroidal neovascularization; experiment: Laser-induced choroidal neovascularization in mice, lectin staining with integrated area measurement; assay type: in vivo, C57BL/6J mice; settings: 400 mg/kg/day orally by gavage
Protocol: C57BL/6J mice are treated in accordance with the Association for Research in Vision and Ophthalmology resolution for the treatment of animals. […] J Path, in press. Briefly, 4 to 5 week old male C57BL/6J mice are anesthetized with ketamine hydrochloride (100 mg/kg body weight) and the pupils are dilated with 1% tropicamide. Three burns of krypton laser photocoagulation (100 μm spot size, 0.1 seconds duration, 150 mW) are delivered to each retina using the slit lamp delivery system of a Coherent Model 920 Photocoagulator and a hand held cover slide as a contact lens. Burns are performed in the 9, 12, and 3 o'clock positions of the posterior pole of the retina. Production of a bubble at the time of laser, which indicates rupture of Bruch's membrane, is an important factor in obtaining CNV, so only mice in which a bubble is produced for all three burns are included. […] After 14 days, the mice are killed with an overdose of pentobarbital sodium, and their eyes are rapidly removed and frozen in optimal cutting temperature embedding compound (OCT). […] Slides are rinsed with 0.05M TBS and incubated 2 hours at 37° C. with biotinylated lectin. […] After a 10 minute incubation in 0.05 M Tris buffer, pH 7.6, slides are developed in Histomark Red (Kirkegaard and Perry) to give a red reaction product, and mounted with Cytoseal (Stephens Scientific, Riverdale, N.J.). Some slides are counterstained with Contrast Blue (Kirkegaard and Perry).
For each lesion, area measurements are made for all sections on which some of the lesion appeared and added together to give the integrated area measurement. Values are averaged to give one experimental value per mouse. A 2-sample t-test for unequal variances is performed to compare the log mean integrated area between treatment and control mice.

[2] = system: retinal vascular development; experiment: Retinal vascular development in neonatal mice, fluorescein-dextran perfused retinal flat mounts; assay type: in vivo, newborn C57/BL6J mice; settings: daily subcutaneous 100 mg/kg
Protocol: Litters of newborn C57/BL6J mice (neonatal mice) are divided into treatment and control groups which received daily subcutaneous injections of 100 mg/kg of the drug or vehicle, respectively. At 7 or 10 days of age, the mice are anesthetized with ether, and perfused with 1 ml of phosphate-buffered saline containing 50 mg/ml of fluorescein-labeled dextran (2×10^6 average mw, Sigma, St. Louis, Mo.) as described by Tobe et al., Evolution of Neovascularization in Mice with Overexpression of VEGF in Photoreceptors, Invest. Ophthalmol. Vis. Sci. 39, 180-188 (1998). The eyes are removed and fixed for 1 hour in 10% phosphate-buffered formalin. The cornea and lens are removed and the entire retina is carefully dissected from the eyecup. Radially cuts are made from the edge of the retina to the equator in all 4 quadrants, and the retina is flat-mounted in Aquamount with photoreceptors facing upward. […] Image-Pro™ Plus is used to measure the distance from the center of the optic nerve to the leading front of developing retinal vessels in each quadrant and the mean is used as a single experimental value.

[3] = system: endothelial cells of mature vessels; experiment: Effect on mature retinal vessels of adult mice, lectin staining with image analysis; assay type: in vivo, Adult C57BL6J mice; settings: 600 mg/kg by gavage once a day, 5 days
Protocol: After 5 days of treatment, the mice are sacrificed, eyes are rapidly removed and frozen in optimum cutting temperature embedding compound (OCT; Miles Diagnostics, Elkhart, Ind.) or fixed in 10% phosphate-buffered formalin and embedded in paraffin. Adult C57BL6J mice are also treated by gavage with the drug or vehicle and after 5 days, they are sacrificed and their eyes are processed for frozen or paraffin sections.

[4] = system: retinal neovascularization; experiment: Oxygen-induced ischemic retinopathy in mice, lectin staining of retinal endothelial cells with image analysis; assay type: in vivo, C57/BL6J mice
Protocol: Ophthalmol. Vis. […] Vehicle (1% DMSO) or vehicle containing various concentrations of the drug (volume=10 μl per gram body weight) is placed in the stomach by gavage.
Some slides are counterstained with hematoxyln and all were mounted with Cytoseal.

With `CO[C@@H]1[C@H](N(C)C(=O)c2ccccc2)C[C@H]2O[C@]1(C)n1c3ccccc3c3c4c(c5c6ccccc6n2c5c31)C(=O)NC4` [NBS, N-benzoyl-staurosporine] the “integrated area of lectin staining per lesion” value ([1]; 14 days after laser, vehicle 0.0695621±0.0073960 mm^2, p=0.004) was 0.009018±0.001754 mm^2, the “appearance of overlying retinal vessels in eyes of treated mice” value ([1]; two weeks after laser) was “appear normal” and the “choroidal neovascularization at the site of each laser-induced rupture of Bruch's membrane” value ([1]; two weeks after laser) was “very little if any choroidal neovascularization”. For the same compound, the “difference in distance from the optic nerve to the vascular front between treated and control mice” value ([2]; at 7 and 10 days of age) was “statistically significant”, the “extent of retinal vessels toward the periphery” value ([2]; at 7 days of age) was “only extend slightly more than halfway to the periphery” and the “extent of superficial capillary bed” value ([2]; at 10 days of age) was “has not yet reached the edge of the retina”. For the same compound, the “total area of endothelial staining in the retina or appearance of retinal vessels compared to vehicle-treated mice” value [3] was “no difference”, the “toxicity to endothelial cells of mature vessels” value [3] was “not toxic” and the “endothelial cell staining on and in the retinas by image analysis versus vehicle-treated mice” value ([4]; 60 mg/kg once a day) was “significantly less”. For the same compound, the “clumps of neovascularization on the surface of the retina versus vehicle-treated control mice” value ([4]; 60 mg/kg twice a day, gavage) was “less than clumps in the retina of the vehicle-treated control mice”, the “clumps of neovascularization on the surface of the retina versus vehicle-treated control mice” value ([4]; 300 mg/kg twice a day, gavage) was “less than clumps in the retina of the vehicle-treated control mice” and the “endothelial cell staining on and in the retinas by image analysis versus vehicle-treated mice” value ([4]; 600 mg/kg once a day) was “significantly less”. The “endothelial cell staining on the surface and within the retina compared to vehicle-treated mice” value ([4]; 600 mg/kg once a day for 5 days, gavage) was “dramatic decrease”.
